Measurements: patent US20220039383A1, “Use of the Succinate Dehydrogenase Inhibitor Fluopyram for Controlling Claviceps Purpurea and Reducing Sclerotia in Cereals” (Bayer Aktiengesellschaft, priority 2018, published 2022)

Experiments:
Claviceps purpurea = assay: Field test plot 2017, Canada: foliar application, assessment of sclerotia (ergot bodies) in spring wheat CTC Utmost; format: in vivo; settings: EC 150 g/l, 1.333 L/HA, 200 g/ha, applied BBCH 59-61, 96 days post application
Protocol: (§1) In Canada, in 2017, a test plot was conducted with the spring wheat variety CTC Utmost. Fluopyram as well as market standards were applied according to table 1 on July 7th between BBCH stage59 and 61 (. Assessment of sclerotia was done in fall 2017 96 days post application.

[1] = tested on: spring wheat variety CTC Utmost; assay: Field test plot 2017, Canada: yield of spring wheat treated against Claviceps purpurea; format: in vivo; settings: EC 150 g/l, 1.333 L/HA, 200 g/ha, untreated = 100
Protocol: as §1

## O=C(NCCc1ncc(C(F)(F)F)cc1Cl)c1ccccc1C(F)(F)F [Fluopyram, N-{[3-chloro-5-(trifluoromethyl)-2-pyridinyl]ethyl}-2-trifluoromethylbenzamide]
Claviceps purpurea
  Number of Ergot bodies per kg seed: 5 per kg seed
[1]
  % yield compared to Untreated: 109.85%
